The record followed here is patent US20250049962A1, “NEAR-INFRARED FLUORESCENT CONTRAST BIOIMAGING AGENTS FOR IMAGING OF SENTINEL LYMPH NODES” (Curadel Surgical Innovations, Inc., priority 2021, published 2025).

Entries after “also recorded” stand apart in the source; their conditions may differ.

A short description of data set [1]: SLN imaging after footpad injection, NIR fluorescence imaging. It counts as in vivo, CD-1 mice. The text has this:
Neae Infrared fluorescence imaging can be achieved using a number of commercially available imaging systes. For example, the dual-NIR channel FLARE imaging system has been described in detail. It provides simultaneous illumination with white light (400-650 nm) at 40,000 lx, 660 nm NIR Channel 1 excitation at 4 mW/cm^2 and […] NIR Channel 2 excitation at 10 mW/cm^2. Color and two independent NIR fluorescence emission images (≈700 nm for Channel 1 and ≈800 nm for Channel 2) were acquired simultaneously with custom software at rates up to 15 Hz over a 15 cm diameter field of view. NIR fluorescence from Channel 1 was pseudo-colored in red and NIR fluorescence from Channel 2 was pseudo-colored in lime green prior to merger with the color video image. The imaging system was positioned at a distance of 18 inches from the surgical field.
(§1) All foot pad injections and intravenous injections were 10 μL of each of these 500 μM concentrations for a total of 5 nmol per injection.
Sentinel lymph nodes were observed a near infrared (NIR) imaging system.
The target tissue was exposed and the SLN was imaged for NIR fluorescence using dual channels [Channel 1 (700 nm) and Channel 2 (800 nm)] of a NIR imaging system.

Data set [2] is described as follows: Biodistribution and clearance 4 hours after intravenous injection. As to conditions: 4 hours post iv injection. It counts as in vivo, CD-1 mice. The protocol: as §1
In order to show the biodistribution benefits of ICB, the same procedure was used using intravenous injections. After 4 hours animals were sacrificed, and the target tissue and other major organs including heart, lung, liver, spleen, pancreas, kidneys, duodenum, intestine, and muscle were resected to quantify biodistribution and clearance. A biodistribution analysis of all three dyes at 4 hours post iv injection.

The next data set in a line: Solubility measurement. Type of data set: physicochemical. On the procedure:
However, the contrast agent is soluble in mixtures of water and ethanol. […] After mixing for an extended period, the solutions were filtered using a 0.45 um spin filter. The solvent of known volumes was then removed by evaporation and solubility was determined by measuring the remaining solids in the pre-measured evaporating flask.

The nature of data set [3]: Lymph flow imaging after intradermal peri-tail injection. As to conditions: until 15 minutes post injection, ICG at 800 nm, FIG. 4. Type of data set: in vivo, CD-1 mice. The protocol: The same procedure was used using intradermal peri-tail injections to visual lymph flow until 15 minutes post injection at which point the animal was sacrificed. […] The arrow with the circle indicates the first-tier node.

In the case of “4-[(2Z)-2-[(2E,4E)-5-[3,3-dimethyl-1-(4-sulfobutyl) indol-1-ium-2-yl]penta-2,4-dienylidene]-3,3-dimethylindol-1-yl]butane-1-sulfonic acid [ICB]”, in data set [1] (5 nmol footpad injection, CD-1 mice), the “leakage / flow through from sentinel lymph nodes” value is listed as “considerably less leakage over ICG or SLN700; also recorded: little to no significant flow through”. The first-tier/second-tier signal-to-background ratio in data set [1] (15 minutes post-injection, 5 nmol footpad injection, CD-1 mice) is reported as 5.4±1.6. For the same molecule, the brightness of visualization result in data set [1] (compared to SLN700, 700 nm) is recorded as “brighter”. For the same molecule, the “liver (hepatic) clearance observed by the imaging” value in data set [1] (footpad injection, CD-1 mice) is “Visible liver (hepatic) clearance”. The route of clearance entry in data set [2] is “completely cleared by the liver”. In data set [2] (5 nmol), the “signal in the kidneys” value is listed as “Minimal signal”, the “signal in the large intestine” value is “enhanced signal” and the “signal in the stomach” value is on record as “to lesser extent”. In “Solubility measurement” (D5W), the solubility entry was “at least 10 mg/mL”. Also, the solubility result in “Solubility measurement” (water) was “at least 10 mg/mL”.

Consider `CC1(C)C(/C=C/C=C/C=C/C=C2\N(CCCCS(=O)(=O)O)c3ccc4ccccc4c3C2(C)C)=[N+](CCCCS(=O)(=O)[O-])c2ccc3ccccc3c21` [ICG, indocyanine green, reference compound], for which, in data set [3], the LN skipping entry was “significant LN skipping”. In data set [2] (5 nmol), the “signal in the large intestine” value was “enhanced signal” and the “signal in the stomach” value is listed as “to lesser extent”.
